Measurements from patent US12157730B2, “Heteroaryl derivative, method for producing same, and pharmaceutical composition comprising same as effective component” (VORONOI INC., priority 2019, dated 2024).

Target: T1, Ba/F3 cell EGFR Exon20 ins NPH (Homo sapiens, UniProt P00533, INS773NPH)
T1 construct: expressed in transfected cells; host or cells: Ba/F3
Test: Ba/F3 cell proliferation suppression, EGFR Exon20 ins NPH
Type: cell-based
Conditions: GI50 class; Ba/F3 cell line with NPH inserted at Exon20 of EGFR; 72 hours
In short: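 Cells were seeded 24 h before dosing and then treated for 72 hours with compound at final concentrations of 0.3 nM to 50 um. Live cells were measured by CellTiter-Glo luminescence, and GI50 values were derived from growth ratio relative to control across three repeats.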

Structure (SMILES)	Ba/F3 (NPH) Activity
C=CC(=O)Nc1cc(Nc2cc(N3OCC[C@@H]3c3cccc(C#N)c3)ncn2)c(OC)cc1N1CCC(N2CCN(C)CC2)CC1 [compound 398, N-(5-((6-((R)-3-(3-cyanophenyl)isoxazolidine-2-yl)pyrimidine-4-yl)amino)-4-methoxy-2-(4-(4-methylpiperazine-1-yl)piperidine-1-yl)phenyl) acrylamide]	A (GI50 < 50 nM)
C=CC(=O)Nc1cc(Nc2cc(N3OCC[C@@H]3c3ccc(F)c(Cl)c3F)ncn2)c(OC)cc1N1CCC(N2C[C@@H]3C[C@H]2CO3)CC1 [compound 637, N-(2-(4-((1S,4S)-2-oxa-5-azabicyclo[2.2.1]heptane-5-yl)piperidine-1-yl)-5-((6-((R)-3-(3-chloro-2,4-difluorophenyl)isoxazolidine-2-yl)pyrimidine-4-yl)amino)-4-methoxyphenyl) acrylamide]	A (GI50 < 50 nM)
C=CC(=O)Nc1cc(Nc2cc(N3OCC[C@@H]3c3cc(F)cc(F)c3)ncn2)c(OC)cc1N1CCC(N2C[C@@H]3C[C@H]2CN3CC)CC1 [Example 264, N-(5-((6-((R)-3-(3,5-difluorophenyl)isoxazolidine-2-yl)pyrimidine-4-yl)amino)-2-(4-((1S,4S)-5-ethyl-2,5-diazabicyclo[2.2.1]heptane-2-yl)piperidine-1-yl)-4-methoxyphenyl) acrylamide]	A (GI50 < 50 nM)
C=CC(=O)Nc1cc(Nc2cc(N3OCC[C@@H]3c3cccc(F)c3)ncn2)c(OC)cc1N1CC[C@@H](N2CCOCC2)C1 [compound 323, N-(5-((6-((R)-3-(3-fluorophenyl)isoxazolidine-2-yl)pyrimidine-4-yl)amino)-4-methoxy-2-((R)-3-morpholinopyrolidine-1-yl)phenyl) acrylamide]	A (GI50 < 50 nM)
C=CC(=O)Nc1cc(Nc2cc(N3OCC[C@@H]3c3cc(F)ccc3F)ncn2)c(OC)cc1N1CCN(CC)CC1 [compound 849, N-(5-((6-((R)-3-(2,5-difluorophenyl)isoxazolidine-2-yl)pyrimidine-4-yl)amino)-2-(4-ethylpiperazine-1-yl)-4-methoxyphenyl) acrylamide]	A (GI50 < 50 nM)
C=CC(=O)Nc1cc(Nc2cc(N3OCC[C@@H]3c3ccc(C)nc3)ncn2)c(OC)cc1N1CCC(N(C)C)CC1 [Example 50, N-(2-(4-dimethylaminopiperidine-1-yl)-4-methoxy-5-((6-((R)-3-(6-methylpyridine-3-yl)isoxazolidine-2-yl)pyrimidine-4-yl)amino)phenyl) acrylamide]	B (50 nM ≤ GI50 < 500 nM)
C=CC(=O)Nc1cc(Nc2cc(N3OCC[C@@H]3c3cccc(F)c3F)ncn2)c(OC)cc1N1CCC(N2CCN(C3CC3)[C@H](C)C2)CC1 [Example 176, N-(2-(4-((R)-4-cyclopropyl-3-methylpiperazine-1-yl)piperidine-1-yl)-5-((6-((R)-3-(2,3-difluorophenyl)isoxazolidine-2-yl)pyrimidine-4-yl)amino)-4-methoxyphenyl) acrylamide]	A (GI50 < 50 nM)
C=CC(=O)Nc1cc(Nc2cc(N3OCC[C@@H]3c3ccc4ccccc4c3)ncn2)c(OC)cc1N1CCC(N(C)C)CC1 [compound 510, N-(2-(4-(dimethylamino)piperidine-1-yl)-4-methoxy-5-((6-((R)-3-(naphthalene-2-yl)isoxazolidine-2-yl)pyrimidine-4-yl)amino)phenyl)acrylamide]	B (50 nM ≤ GI50 < 500 nM)
C=CC(=O)Nc1cc(Nc2cc(N3OCC[C@@H]3c3cc(F)cc(F)c3)ncn2)c(OC)cc1N1CCC(N2CC3(COC3)C2)CC1 [Example 103, N-(2-(4-(2-oxa-6-azaspiro[3.3]heptane-6-yl)piperidine-1-yl)-5-((6-((R)-3-(3,5-difluorophenyl)isoxazolidine-2-yl)pyrimidine-4-yl)amino)-4-methoxyphenyl) acrylamide]	A (GI50 < 50 nM)
C=CC(=O)Nc1cc(Nc2cc(N3OCC[C@@H]3c3ccc(F)cc3F)ncn2)c(OC)cc1N1CCN(C(C)=O)CC1 [compound 343]	A (GI50 < 50 nM)
C=CC(=O)Nc1cc(Nc2cc(N3OCC[C@@H]3c3cccc(C(F)(F)F)c3)ncn2)c(OC)cc1N1CCC(N2C[C@H]3C[C@@H]2CO3)CC1 [compound 943, N-(2-(4-((1R,4R)-2-oxa-5-azabicyclo [2.2.1]heptane-5-yl)piperidine-1-yl)-4-methoxy-5-((6-((R)-3-(3-(trifluoromethyl)phenyl)isoxazolidine-2-yl)pyrimidine-4-yl)amino)phenyl) acrylamide]	A (GI50 < 50 nM)
C=CC(=O)Nc1cc(Nc2cc(N3OCC[C@@H]3c3ccc(Cl)c(Cl)c3)ncn2)c(OC)cc1N1CCC(N2CCN(C)CC2)CC1 [compound 681]	A (GI50 < 50 nM)
C=CC(=O)Nc1cc(Nc2cc(N3OCC[C@@H]3c3cccc(Cl)c3)ncn2)c(OC)cc1N1CCC(N2CCN(CC)CC2)CC1 [compound 412, N-(5-((6-((R)-3-(3-chlorophenyl)isoxazolidine-2-yl)pyrimidine-4-yl)amino)-2-(4-(4-ethylpiperazine-1-yl)piperidine-1-yl)-4-methoxyphenyl) acrylamide]	A (GI50 < 50 nM)
C=CC(=O)Nc1cc(Nc2cc(N3OCC[C@@H]3c3ccc(F)c(F)c3F)ncn2)c(OC)cc1N1CCC(N2CCN(C)CC2)CC1 [compound 620, N-(4-methoxy-2-(4-(4-methylpiperazine-1-yl)piperidine-1-yl)-5-((6-((R)-3-(2,3,4-trifluorophenyl)isoxazolidine-2-yl)pyrimidine-4-yl)amino)phenyl)acrylamide]	A (GI50 < 50 nM)
C=CC(=O)Nc1cc(Nc2cc(N3OCC[C@@H]3c3cccc(F)c3Cl)ncn2)c(OC)cc1N1CCC(N2CCN(C)CC2)CC1 [compound 560, N-(5-((6-((R)-3-(2-chloro-3-fluorophenyl)isoxazolidine-2-yl)pyrimidine-4-yl)amino)-4-methoxy-2-(4-(4-methylpiperazine-1-yl)piperidine-1-yl)phenyl) acrylamide]	A (GI50 < 50 nM)
C=CC(=O)Nc1cc(Nc2cc(N3OCC[C@@H]3c3ccc(F)c(Cl)c3)ncn2)c(OC)cc1N1CCC(N2CCN(C3CCCC3)CC2)CC1 [Example 99, N-(5-((6-((R)-3-(3-chloro-4-fluorophenyl)isoxazolidine-2-yl)pyrimidine-4-yl)amino)-2-(4-(4-cyclopentylpiperazine-1-yl)piperidine-1-yl)-4-methoxyphenyl) acrylamide]	A (GI50 < 50 nM)
C=CC(=O)Nc1cc(Nc2cc(N3OCC[C@@H]3c3ccc(F)c(Cl)c3)ncn2)c(OC)cc1N1CCC(N2CCN(CC)CC2)CC1 [Example 263, N-(5-((6-((R)-3-(3-chloro-4-fluorophenyl)isoxazolidine-2-yl)pyrimidine-4-yl)amino)-2-(4-(4-ethylpiperazine-1-yl)piperidine-1-yl)-4-methoxyphenyl) acrylamide]	A (GI50 < 50 nM)
C#Cc1cccc([C@H]2CCON2c2cc(Nc3cc(NC(=O)C=C)c(N4CCC(N5CCN(C6CC6)CC5)CC4)cc3OC)ncn2)c1 [Example 165, N-(2-(4-(4-cyclopropylpiperazine-1-yl)piperidine-1-yl)-5-((6-((R)-3-(3-ethynylphenyl)isoxazolidine-2-yl)pyrimidine-4-yl)amino)-4-methoxyphenyl) acrylamide]	A (GI50 < 50 nM)
C=CC(=O)Nc1cc(Nc2cc(N3OCC[C@@H]3c3ccc(F)cc3F)ncn2)c(OC)cc1N1CCN(CCN(C)C)CC1 [compound 349, N-(5-((6-((R)-3-(2,4-difluorophenyl)isoxazolidine-2-yl)pyrimidine-4-yl)amino)-2-(4-(2-(dimethylamino)ethyl)piperazine-1-yl)-4-methoxyphenyl) acrylamide]	A (GI50 < 50 nM)
C=CC(=O)Nc1cc(Nc2cc(N3OCC[C@H]3c3c(F)cccc3F)ncn2)c(OC)cc1N1CCC(N(C)C)CC1 [compound 308, N-(5-((6-((S)-3-(2,6-difluorophenyl)isoxazolidine-2-yl)pyrimidine-4-yl)amino)-2-(4-(dimethylamino)piperidine-1-yl)-4-methoxyphenyl) acrylamide]	C (500 nM ≤ GI50 < 5000 nM)
C=CC(=O)Nc1cc(Nc2cc(N3OCC[C@@H]3c3cccc(OC)c3)ncn2)c(OC)cc1N1CCC(N2CCC(N(C)C)CC2)CC1 [compound 781, N-(2-(4-(dimethylamino)-[1,4'-bipiperidine]-1'-yl)-4-methoxy-5-((6-((R)-3-(3-methoxyphenyl)isoxazolidine-2-yl)pyrimidine-4-yl)amino)phenyl)acrylamide]	B (50 nM ≤ GI50 < 500 nM)
C=CC(=O)Nc1cc(Nc2cc(N3OCC[C@@H]3c3cc(F)cc(Cl)c3)ncn2)c(OC)cc1N1CCC(N2CCN(C3CC3)C[C@H]2C)CC1 [Example 159, N-(5-((6-((R)-3-(3-chloro-5-fluorophenyl)isoxazolidine-2-yl)pyrimidine-4-yl)amino)-2-(4-((R)-4-cyclopropyl-2-methylpiperazine-1-yl)piperidine-1-yl)-4-methoxyphenyl) acrylamide]	A (GI50 < 50 nM)
C=CC(=O)Nc1cc(Nc2cc(N3OCC[C@@H]3c3cccc(C)c3F)ncn2)c(OC)cc1N1CCC(N2CC[C@H](N(C)C)C2)CC1 [compound 910, N-(2-(4-((S)-3-(dimethylamino)pyrolidine-1-yl)piperidine-1-yl)-5-((6-((R)-3-(2-fluoro-3-methylphenyl)isoxazolidine-2-yl)pyrimidine-4-yl)amino)-4-methoxyphenyl) acrylamide]	A (GI50 < 50 nM)
